Where “and” joins values, the source holds several entries; their conditions need not be identical. Equal values may be shown once.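 All cell lines were grown in 96-well plates and treated with compound for 48 hours. GI50 marks 50% less growth.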 Calls of active or inactive are those of the source. No stated cut-off is given here; in the data, active = GI50 up to about 1.1 µM and inactive = higher.
Tests used:
Test in all cases: growth of human tumour cells (NCI), 48 h
HL-60 = test system: HL-60
SK-MEL-5 = test system: SK-MEL-5
BT-549 = test system: BT-549
SK-MEL-2 = test system: SK-MEL-2
MOLT-4 = test system: MOLT-4
SF-539 = test system: SF-539
PC-3 = test system: PC-3
HCT-116 = test system: HCT-116
COLO 205 = test system: COLO 205
HCT-15 = test system: HCT-15
M14 = test system: M14
SNB-19 = test system: SNB-19
DU-145 = test system: DU-145
OVCAR-3 = test system: OVCAR-3
NCI-H460 = test system: NCI-H460
RXF 393 = test system: RXF 393
OVCAR-8 = test system: OVCAR-8
UACC-62 = test system: UACC-62
OVCAR-5 = test system: OVCAR-5
ACHN = test system: ACHN
UACC-257 = test system: UACC-257
NCI-H23 = test system: NCI-H23
KM12 = test system: KM12
SN12C = test system: SN12C
SR = test system: SR
HT-29 = test system: HT-29
786-0 = test system: 786-0
HOP-92 = test system: HOP-92
SF-268 = test system: SF-268
CAKI-1 = test system: CAKI-1
SK-OV-3 = test system: SK-OV-3
MDA-MB-435 = test system: MDA-MB-435
HCC 2998 = test system: HCC 2998
HOP-62 = test system: HOP-62
MDA-MB-231 = test system: MDA-MB-231
MCF7 = test system: MCF7
CCRF-CEM = test system: CCRF-CEM
EKVX = test system: EKVX
A549 = test system: A549
LOX IMVI = test system: LOX IMVI
MDA-N = test system: MDA-N
NCI/ADR-RES = test system: NCI/ADR-RES
IGROV-1 = test system: IGROV-1
A498 = test system: A498
SK-MEL-28 = test system: SK-MEL-28
U-251 = test system: U-251
NCI-H226 = test system: NCI-H226
T47D = test system: T47D
RPMI-8226 = test system: RPMI-8226
SF-295 = test system: SF-295
UO-31 = test system: UO-31
SW-620 = test system: SW-620
Malme-3M = test system: Malme-3M
OVCAR-4 = test system: OVCAR-4
NCI-H522 = test system: NCI-H522
SNB-75 = test system: SNB-75
K562 = test system: K562
TK-10 = test system: TK-10

COc1ccc(-c2c(C#N)c(N)n(C3OCC(OC(C)=O)C(OC(C)=O)C3OC(C)=O)c(=S)c2C#N)cc1 (configuration not stated)
GI50 (HL-60): 17.4 µM (inactive) and 15.2 µM (inactive) | GI50 (SK-MEL-5): 34.8 µM (inactive) | GI50 (BT-549): 20.7 µM (inactive) and 16.4 µM (inactive) | GI50 (SK-MEL-2): 22.3 µM (inactive) and 40.7 µM (inactive) | GI50 (MOLT-4): 17.6 µM (inactive) and 14.3 µM (inactive) | GI50 (SF-539): 88.9 µM (inactive) and 87.9 µM (inactive) | GI50 (PC-3): 32.9 µM (inactive) and 34.4 µM (inactive) | GI50 (HCT-116): 41.1 µM (inactive) and 52.2 µM (inactive) | GI50 (COLO 205): 36.1 µM (inactive) and 50.1 µM (inactive) | GI50 (HCT-15): 73.1 µM and 62.5 µM | GI50 (M14): 53 µM (inactive) and 49.3 µM (inactive) | GI50 (SNB-19): > 100 µM (inactive) | GI50 (DU-145): 64.4 µM (inactive) and 60.1 µM (inactive) | GI50 (OVCAR-3): 31.8 µM (inactive) and 23.4 µM (inactive) | GI50 (NCI-H460): 44.1 µM (inactive) and 36.4 µM (inactive) | GI50 (RXF 393): 19.1 µM (inactive) and 33.6 µM (inactive) | GI50 (OVCAR-8): 39.3 µM (inactive) and 21.8 µM (inactive) | GI50 (UACC-62): 30.8 µM (inactive) and 40.9 µM (inactive) | GI50 (OVCAR-5): 45.7 µM (inactive) and 43.8 µM (inactive) | GI50 (ACHN): 48.9 µM (inactive) and 40.6 µM (inactive) | GI50 (UACC-257): > 100 µM (inactive) | GI50 (NCI-H23): > 100 µM (inactive) | GI50 (KM12): 53.7 µM (inactive) and 50.1 µM (inactive) | GI50 (SN12C): 34.6 µM (inactive) and 34.5 µM (inactive) | GI50 (SR): 14.3 µM (inactive) and 14 µM (inactive) | GI50 (HT-29): 41.2 µM (inactive) and 44.5 µM (inactive) | GI50 (786-0): 42.4 µM (inactive) and 36.8 µM (inactive) | GI50 (HOP-92): 16.4 µM (inactive) and 11.8 µM (inactive) | GI50 (SF-268): 31.4 µM (inactive) | GI50 (CAKI-1): 38.5 µM (inactive) and 23.1 µM (inactive) | GI50 (SK-OV-3): 42.8 µM (inactive) and 24 µM (inactive) | GI50 (MDA-MB-435): 25.3 µM (inactive) and 35.7 µM (inactive) | GI50 (HCC 2998): 37.8 µM (inactive) and 26.6 µM (inactive) | GI50 (HOP-62): 40.9 µM (inactive) and 23.6 µM (inactive) | GI50 (MDA-MB-231): 41.7 µM (inactive) and 33 µM (inactive) | GI50 (MCF7): 27.5 µM (inactive) and 49.3 µM (inactive) | GI50 (CCRF-CEM): 16.4 µM (inactive) and 31 µM (inactive) | GI50 (EKVX): 34.7 µM (inactive) and 22.6 µM (inactive) | GI50 (A549): 99.5 µM (inactive) and 65.3 µM (inactive) | GI50 (LOX IMVI): 30 µM (inactive) and 34 µM (inactive) | GI50 (MDA-N): 43 µM (inactive) and 51.2 µM (inactive) | GI50 (NCI/ADR-RES): > 100 µM (inactive) | GI50 (IGROV-1): 77.1 µM (inactive) and 63.4 µM (inactive) | GI50 (A498): 32.7 µM (inactive) and 28.2 µM (inactive) | GI50 (SK-MEL-28): 61.4 µM (inactive) and 60.3 µM (inactive) | GI50 (U-251): 32.9 µM (inactive) and 54.5 µM (inactive) | GI50 (NCI-H226): 82.8 µM (inactive) and 77.8 µM (inactive) | GI50 (T47D): 14.8 µM (inactive) and 26.7 µM (inactive) | GI50 (RPMI-8226): 25.9 µM (inactive) and 26.4 µM (inactive) | GI50 (SF-295): 46.9 µM (inactive) and 71.4 µM (inactive) | GI50 (UO-31): 23.1 µM (inactive) and 22 µM (inactive) | GI50 (SW-620): > 100 µM (inactive) and 93.5 µM (inactive) | GI50 (Malme-3M): 44.9 µM (inactive) and 37.5 µM (inactive) | GI50 (OVCAR-4): 47.3 µM (inactive) and 48.3 µM (inactive) | GI50 (NCI-H522): 38.8 µM (inactive) and 53.3 µM (inactive) | GI50 (SNB-75): 31.8 µM (inactive) and 21 µM (inactive)

CC(CCC(=O)O)[C@H]1CCC2[C@H]3C(CC(=O)[C@@]21C)[C@@]1(C)CCC(O)C[C@H]1C[C@@H]3O (some centres not stated)
GI50 (HL-60): > 100 µM (inactive) | GI50 (BT-549): > 100 µM (inactive) | GI50 (SK-MEL-2): > 100 µM (inactive) | GI50 (MOLT-4): > 100 µM (inactive) | GI50 (SF-539): > 100 µM (inactive) | GI50 (PC-3): > 100 µM (inactive) | GI50 (HCT-116): > 100 µM (inactive) | GI50 (COLO 205): > 100 µM (inactive) | GI50 (HCT-15): > 100 µM | GI50 (M14): > 100 µM (inactive) | GI50 (SNB-19): > 100 µM (inactive) | GI50 (DU-145): > 100 µM (inactive) | GI50 (NCI-H460): > 100 µM (inactive) | GI50 (RXF 393): > 100 µM (inactive) | GI50 (OVCAR-8): > 100 µM (inactive) | GI50 (UACC-62): > 100 µM (inactive) | GI50 (OVCAR-5): > 100 µM (inactive) | GI50 (ACHN): > 100 µM (inactive) | GI50 (UACC-257): > 100 µM (inactive) | GI50 (NCI-H23): > 100 µM (inactive) | GI50 (KM12): > 100 µM (inactive) | GI50 (SN12C): > 100 µM (inactive) | GI50 (SR): > 100 µM (inactive) | GI50 (HT-29): > 100 µM (inactive) | GI50 (786-0): > 100 µM (inactive) | GI50 (HOP-92): > 100 µM (inactive) | GI50 (SF-268): > 100 µM (inactive) | GI50 (CAKI-1): > 100 µM (inactive) | GI50 (K562): > 100 µM (inactive) | GI50 (MDA-MB-435): > 100 µM (inactive) | GI50 (HCC 2998): > 100 µM (inactive) | GI50 (HOP-62): > 100 µM (inactive) | GI50 (MDA-MB-231): > 100 µM (inactive) | GI50 (MCF7): > 100 µM (inactive) | GI50 (CCRF-CEM): > 100 µM (inactive) | GI50 (EKVX): > 100 µM (inactive) | GI50 (A549): > 100 µM (inactive) | GI50 (LOX IMVI): > 100 µM (inactive) | GI50 (MDA-N): > 100 µM (inactive) | GI50 (NCI/ADR-RES): > 100 µM (inactive) | GI50 (IGROV-1): > 100 µM (inactive) | GI50 (A498): > 100 µM (inactive) | GI50 (SK-MEL-28): > 100 µM (inactive) | GI50 (U-251): > 100 µM (inactive) | GI50 (NCI-H226): > 100 µM (inactive) | GI50 (T47D): > 100 µM (inactive) | GI50 (RPMI-8226): > 100 µM (inactive) | GI50 (UO-31): > 100 µM (inactive) | GI50 (SW-620): > 100 µM (inactive) | GI50 (Malme-3M): > 100 µM (inactive) | GI50 (OVCAR-4): > 100 µM (inactive) | GI50 (NCI-H522): > 100 µM (inactive) | GI50 (SNB-75): > 100 µM (inactive)

CC1(C)CCC(C)(C)c2cc(C(=O)Nc3ccc(C(=O)O)cc3)ccc21
GI50 (HL-60): 3.52 µM (inactive) | GI50 (SK-MEL-5): 23.6 µM (inactive) | GI50 (BT-549): 25.5 µM (inactive) | GI50 (SK-MEL-2): 22.1 µM (inactive) | GI50 (MOLT-4): 24.9 µM (inactive) | GI50 (SF-539): 13.4 µM (inactive) | GI50 (PC-3): 19.9 µM (inactive) | GI50 (HCT-116): 19.3 µM (inactive) | GI50 (COLO 205): 18 µM (inactive) | GI50 (HCT-15): 22.7 µM | GI50 (TK-10): 26.1 µM (inactive) | GI50 (M14): 19.6 µM (inactive) | GI50 (SNB-19): 26.1 µM (inactive) | GI50 (DU-145): 28.4 µM (inactive) | GI50 (OVCAR-3): 17.9 µM (inactive) | GI50 (NCI-H460): 19.9 µM (inactive) | GI50 (RXF 393): 7.62 µM (inactive) | GI50 (OVCAR-8): 30.5 µM (inactive) | GI50 (UACC-62): 17.3 µM (inactive) | GI50 (OVCAR-5): 32.3 µM (inactive) | GI50 (ACHN): 21.5 µM (inactive) | GI50 (UACC-257): 28.2 µM (inactive) | GI50 (NCI-H23): 17.9 µM (inactive) | GI50 (KM12): 26.5 µM (inactive) | GI50 (SN12C): 31.8 µM (inactive) | GI50 (SR): 15 µM (inactive) | GI50 (HT-29): 20.7 µM (inactive) | GI50 (786-0): 28.9 µM (inactive) | GI50 (HOP-92): 27.1 µM (inactive) | GI50 (SF-268): 27.3 µM (inactive) | GI50 (CAKI-1): 18.4 µM (inactive) | GI50 (K562): 22.8 µM (inactive) | GI50 (SK-OV-3): 19.8 µM (inactive) | GI50 (MDA-MB-435): 16.4 µM (inactive) | GI50 (HCC 2998): 19.2 µM (inactive) | GI50 (HOP-62): 18.7 µM (inactive) | GI50 (MDA-MB-231): 22.4 µM (inactive) | GI50 (MCF7): 33.1 µM (inactive) | GI50 (CCRF-CEM): 18.2 µM (inactive) | GI50 (EKVX): 19.5 µM (inactive) | GI50 (A549): 20 µM (inactive) | GI50 (LOX IMVI): 24.4 µM (inactive) | GI50 (MDA-N): 22 µM (inactive) | GI50 (NCI/ADR-RES): 19.9 µM (inactive) | GI50 (IGROV-1): 22.7 µM (inactive) | GI50 (A498): 31.7 µM (inactive) | GI50 (SK-MEL-28): 40.3 µM (inactive) | GI50 (U-251): 27 µM (inactive) | GI50 (NCI-H226): > 44.8 µM (inactive) | GI50 (T47D): 15.5 µM (inactive) | GI50 (RPMI-8226): 14.5 µM (inactive) | GI50 (SF-295): 22 µM (inactive) | GI50 (UO-31): 14.9 µM (inactive) | GI50 (SW-620): 36.7 µM (inactive) | GI50 (Malme-3M): 18.7 µM (inactive) | GI50 (OVCAR-4): 20.9 µM (inactive) | GI50 (NCI-H522): 26.9 µM (inactive) | GI50 (SNB-75): 26.4 µM (inactive)
